Laboratory results taken from patent US5789602A, “Physiologically active substances PF1092A, PF1092B and PF1092C, process for the production thereof, and contraceptives and anticancer drugs containing the same as active ingredients” (Meiji Seika Kaisha, Ltd., priority 1995, dated 1998).
“Also recorded” adds a separate entry of the source.

Tests used:
[1] = biological target: T1, progesterone receptor (Sus scrofa, UniProt D0EWS6); experiment: progesterone receptor binding activity (3H-progesterone, hog uterus cytosol); set-up: species or system hogs; settings: 1 h, 30 μM test substance, 4° C., 60 minutes, read-out: inhibition of the binding of 3H-progesterone to the progesterone receptor (inhibition ratio)
T1 construct: from tissue; host or cells: hog uterus, cytosol (100,000×g supernatant)
T1 sequence (D0EWS6 1-934): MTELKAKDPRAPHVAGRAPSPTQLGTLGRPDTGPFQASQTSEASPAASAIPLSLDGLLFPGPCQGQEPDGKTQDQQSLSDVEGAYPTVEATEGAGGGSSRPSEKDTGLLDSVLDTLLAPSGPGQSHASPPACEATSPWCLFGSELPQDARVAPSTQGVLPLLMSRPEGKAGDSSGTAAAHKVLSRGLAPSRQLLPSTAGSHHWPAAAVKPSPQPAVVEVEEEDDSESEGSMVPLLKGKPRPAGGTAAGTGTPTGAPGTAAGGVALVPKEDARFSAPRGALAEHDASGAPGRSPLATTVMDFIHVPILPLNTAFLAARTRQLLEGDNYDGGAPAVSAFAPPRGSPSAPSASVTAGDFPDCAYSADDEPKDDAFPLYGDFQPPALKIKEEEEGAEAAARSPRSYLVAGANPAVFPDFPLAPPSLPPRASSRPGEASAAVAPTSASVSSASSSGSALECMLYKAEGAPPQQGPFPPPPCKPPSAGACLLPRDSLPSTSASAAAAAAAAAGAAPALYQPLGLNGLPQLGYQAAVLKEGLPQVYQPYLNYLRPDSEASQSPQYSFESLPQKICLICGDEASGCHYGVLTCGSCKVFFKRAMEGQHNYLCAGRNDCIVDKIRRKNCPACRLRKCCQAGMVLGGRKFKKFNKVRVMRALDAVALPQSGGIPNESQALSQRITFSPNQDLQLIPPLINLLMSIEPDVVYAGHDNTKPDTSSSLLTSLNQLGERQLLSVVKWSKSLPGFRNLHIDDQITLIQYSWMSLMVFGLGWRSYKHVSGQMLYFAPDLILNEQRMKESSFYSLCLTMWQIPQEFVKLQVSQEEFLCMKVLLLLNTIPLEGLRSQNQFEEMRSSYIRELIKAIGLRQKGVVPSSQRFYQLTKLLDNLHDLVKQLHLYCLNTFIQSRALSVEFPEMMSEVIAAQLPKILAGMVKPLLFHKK
Method: The progesterone receptor binding activity of substance PF1092A, substance PF1092B and substance PF1092C of the present invention was measured in the following manner in accordance with the method of H. Kondo et al. (J. Antibiotics, vol. 43, pp. 1533-1542, 1990). That is, uteri taken from hogs in 5 mM phosphate buffer were disrupted using Polytron homogenizer, and the resulting solution was subjected to centrifugation (100,000×g, 30 minutes) to separate the supernatant fluid which was used as the cytosol containing progesterone receptor.
In the assay of progesterone receptor binding activity, 40 μl of a solution of ^3 H-progesterone as a ligand of the receptor (3.84 TBq/mmol, 18.5 kBq/ml), 50 μl of the just obtained cytosol (2-3 mg protein/ml), 30 μM of substance PF1092A, substance PF1092B and substance PF1092C and 30 μM of medroxyprogesterone acetate (MPA) were put into a test tube and incubated at 4° C. for 60 minutes to effect the reaction and then mixed with 100 μl of 0.5% activated carbon solution. After 10 minutes of standing, this was subjected to centrifugation (2,000×g, 10 minutes), and radioactivity of the thus obtained supernatant fluid was measured using a liquid scintillation counter. Inhibition ratio was calculated based on the following formula in which radioactivity with no addition of the test drug was defined as the amount of total binding to the cytosol and radioactivity with the addition of MPA was defined as the amount of non-specific binding. [formula]

[2] = Solubility (physico-chemical properties); assay type: physicochemical; settings: qualitative, in organic solvents and in water

inhibition at 30 µM [1] [%] | SMILES | Solubility [2]
≥ 90 | CC(=O)OC1C(O)C=C2C=C3OC(=O)C(C)=C3CC2(C)C1C (stereo not drawn) [PF1092A] | soluble in chloroform, acetone, ethyl acetate, methanol and dimethyl sulfoxide, and insoluble in water and hexane
≥ 90 | CC(=O)OC1C=C2C=C3OC(=O)C(C)=C3CC2(C)C(C)C1O (stereo not drawn) [PF1092B] | soluble in chloroform, acetone, ethyl acetate, methanol and dimethyl sulfoxide, and insoluble in water and hexane
~70 | CC1=C2CC3(C)C(=CC(O)C(O)C3C)C=C2OC1=O (stereo not drawn) [PF1092C] | soluble in chloroform, acetone, ethyl acetate, methanol and dimethyl sulf oxide, and insoluble in water and hexane; also recorded: soluble in chloroform, acetone, ethyl acetate, methanol and dimethyl sulfoxide, and insoluble in water and hexane
